Assay results: US9464055B2, “Quinoline derivatives useful as CB-1 inverse agonists” (JANSSEN PHARMACEUTICA NV, priority 2014, dated 2016)

Biological target: T1, Human CB2R (Cannabinoid receptor 2) (Homo sapiens, UniProt P34972)
T1 construct: host or cells: HEK-293
Assay: CB-2 in vitro cAMP (HTRF) functional assay
Type: cell-based
Conditions: mean where tested more than once
Excerpt: CB1 and CB2 receptors are Gi-coupled GPCR. Activation of CB1 and CB2 receptors results in a decrease in cAMP production. An inverse agonist of the CB1 or CB2 receptor results in the opposite effect, an increase of cAMP production. The principle of this assay is based on HTRF® technology (Homogeneous Time-Resolved Fluorescence). The method is a competitive immunoassay between native cAMP produced by cells and the cAMP labeled with the fluorophore d2. The tracer binding is quantified by a Mab anti-cAMP labeled with Eu3+ TBP-NHS Cryptate (supplied as part of the assay kit). The specific signal (i.e. energy transfer) is inversely proportional to the concentration of cAMP in the standard or sample.
Human CB1R (Cannabinoid receptor 1) was stably transfected in HEK-293 cells (DiscoveRx, cat: 93-0200C1). Human CB2R (Cannabinoid receptor 2) was stably transfected in HEK-293 cells (DiscoveRx, cat: 93-0201C1). Cell cultures were maintained in media: DMEM (Invitrogen Cat#12430-054) supplemented with 10% HI FBS (Invitrogen Cat#16140-071), 1% L-glutamine (Invitrogen Cat#25030-081), 0.2 mg/ml Hygromycin B (Invitrogen Cat#10687-010), 600 μg/mL G418 (Invitrogen Cat#10131-035), and 1× Penn/Strep (Invitrogen 15140-122). After cell expansion, aliquots were cryo-stored in media containing 5% DMSO (Pierce Cat#20684).
One day prior to experiments media was warmed to 37° C. and the cryo-stored cells were thawed in a 37° C. water bath. The cells were then added to media (10× volume) and the mixture was centrifuged at 1000 RPM for 5 min. The supernate was removed and the cells were re-suspended in media. A sample of the cell suspension was evaluated on a Cedex XS automated cell counter (Innovatis Systems) to determine viable cells/ml. Additional media was added to the cells to achieve a final cell density of 4E5 cells/mL. The cells were then plated into 384 well PDL white solid bottom plates (Greiner, Cat#781945) at 20 μL per well using a Multidrop (Thermo Scientific). Cells were removed from Row P (location of cAMP standards). Two columns of cells were plated into a clear bottom 384 well PDL coated plate (Greiner, Cat#781944) to view confluence the day of the assay. The cell plates were lidded and stored for 15 minutes in a hood, then transferred to an incubator (37° C., 5% CO2, 95% humidity) overnight.
DMSO was added to all wells of 384 well V bottom polystyrene plate (Greiner, Cat#781280) except to columns 1 and 13, rows O and P and wells M13-M23 and N13-N23. Test compounds (60 μL, 10 mM) were added to Column 1 and 13 (A1 through N1 and A13 through L13). Test compounds were serially diluted 1/3 by transferring and mixing 20 μl sample with 40 μL DMSO.
DMSO (40 μL) was added to wells of 384 well V bottom polystyrene plate: O2 through O11, M14 through M23, N14 through N23, and O14 through O23. AM630 (also known as [6-iodo-2-methyl-1-[2-(4-morpholinyl)ethyl]-1H-indol-3-yl](4-methoxyphenyl)-methanone, Cayman Chemical, Cat#10006974) (60 μL, 10 mM) was added to O1; and 1-(2,4-dichlorophenyl)-7-[(4-fluorophenyl)methylene]-4,5,6,7-tetrahydro-N-1-piperidinyl-1H-indazole-3-carboxamide (60 μL, 10 mM) was added to N13. The control was serially diluted 1/3 by transferring and mixing 20 μl sample with 40 μL DMSO. This process resulted 11 doses per control, 10 mM to […].
Cells plated the day prior to the assay in clear bottom plates were viewed on an inverse microscope to ensure confluency in the range of 60-75%. […]

T1 sequence (P34972 whole entry): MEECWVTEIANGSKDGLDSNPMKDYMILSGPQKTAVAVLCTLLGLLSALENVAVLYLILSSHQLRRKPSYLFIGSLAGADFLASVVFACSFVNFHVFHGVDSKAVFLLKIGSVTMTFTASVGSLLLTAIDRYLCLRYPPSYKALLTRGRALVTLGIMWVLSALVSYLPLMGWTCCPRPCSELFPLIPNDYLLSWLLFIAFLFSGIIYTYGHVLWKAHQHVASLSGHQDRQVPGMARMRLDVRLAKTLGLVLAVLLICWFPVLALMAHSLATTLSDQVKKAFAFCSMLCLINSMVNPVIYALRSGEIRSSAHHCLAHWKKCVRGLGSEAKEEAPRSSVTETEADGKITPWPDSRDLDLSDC

EC50 [µM]	Compound
> 10	CCOC(=O)CCCNc1cc(C(c2ccc(Cl)cc2)c2ccc(Cl)cc2)cc2c(NC3CCN(S(=O)(=O)C(F)(F)F)CC3)cc(=O)[nH]c12 [Compound 104, Ethyl 4-({6-[bis(4-chlorophenyl)methyl]-2-oxo-4-({1-[(trifluoromethyl)sulfonyl]piperidin-4-yl}amino)-1,2-dihydroquinolin-8-yl}amino)butanoate]
> 10	O=C(O)CCCOc1ccc(Nc2cc(=O)[nH]c3ccc(C(c4ccc(Cl)cc4)c4ccc(Cl)cc4)cc23)cc1 [Compound 121, 4-[4-({6-[Bis(4-chlorophenyl)methyl]-2-oxo-1,2-dihydroquinolin-4-yl}amino)phenoxy]butanoic acid]
> 10	O=C(O)CN1CCC(Nc2cc(=O)[nH]c3ccc(C(c4ccc(Cl)cc4)c4ccc(Cl)cc4)cc23)CC1 [Compound 117, [4-({6-[Bis(4-chlorophenyl)methyl]-2-oxo-1,2-dihydroquinolin-4-yl}amino)piperidin-1-yl]acetic acid]
> 10	COCCn1c(=O)cc(NC2CCN(S(=O)(=O)C(F)(F)F)CC2)c2cc(C(c3ccc(Cl)cc3)c3ccc(Cl)cc3)ccc21 [Compound 110, 6-(bis(4-chlorophenyl)methyl)-1-(2-methoxyethyl)-4-((1-((trifluoromethyl)sulfonyl)piperidin-4-yl)amino)quinolin-2(1H)-one]
> 10	O=C(O)Cc1ccc(Nc2cc(=O)[nH]c3ccc(C(c4ccc(Cl)cc4)c4ccc(Cl)cc4)cc23)cc1 [Compound 125, [4-({6-[Bis(4-chlorophenyl)methyl]-2-oxo-1,2-dihydroquinolin-4-yl}amino)phenyl]acetic acid]
> 10	NC(=O)COc1ccc(Nc2cc(=O)[nH]c3ccc(C(c4ccc(Cl)cc4)c4ccc(Cl)cc4)cc23)cc1 [Compound 111, 2-(4-((6-(bis(4-chlorophenyl)methyl)-2-oxo-1,2-dihydroquinolin-4-yl)amino)phenoxy)acetamide]
> 10	CC(C)(C)OC(=O)COc1ccc(Nc2cc(=O)[nH]c3ccc(C(c4ccc(Cl)cc4)c4ccc(Cl)cc4)cc23)cc1 [Compound 105, tert-butyl 2-(4-((6-(bis(4-chlorophenyl)methyl)-2-oxo-1,2-dihydroquinolin-4-yl)amino)phenoxy)acetate]
> 10	O=c1cc(NCc2ccc(C(F)(F)F)cc2)c2cc(C(c3ccc(Cl)cc3)c3ccc(Cl)cc3)ccc2[nH]1 [Compound 58, 6-[Bis(4-chlorophenyl)methyl]-4-{[4-(trifluoromethyl)benzyl]amino}quinolin-2(1H)-one]
> 10	O=c1cc(Nc2cccc(C(F)(F)F)c2)c2cc(C(c3ccc(Cl)cc3)c3ccc(Cl)cc3)ccc2[nH]1 [Compound 75, 6-[Bis(4-chlorophenyl)methyl]-4-{[3-(trifluoromethyl)phenyl]amino}quinolin-2(1H)-one]
> 10	NC(=O)c1ccc(Nc2cc(=O)[nH]c3ccc(C(c4ccc(Cl)cc4)c4ccc(Cl)cc4)cc23)cc1 [Compound 87, 4-({6-[Bis(4-chlorophenyl)methyl]-2-oxo-1,2-dihydroquinolin-4-yl}amino)benzamide]
> 10	O=C(O)CC(=O)N1CCC(Nc2cc(=O)[nH]c3ccc(C(c4ccc(Cl)cc4)c4ccc(Cl)cc4)cc23)CC1 [Compound 96, 3-[4-({6-[Bis(4-chlorophenyl)methyl]-2-oxo-1,2-dihydroquinolin-4-yl}amino)piperidin-1-yl]-3-oxopropanoic acid]
> 10	CCS(=O)(=O)N1CCC(Nc2cc(=O)[nH]c3ccc(C(c4ccc(Cl)cc4)c4ccc(Cl)cc4)cc23)CC1 [Compound #56, 6-(bis(4-chlorophenyl)methyl)-4-((1-(ethylsulfonyl)piperidin-4-yl)amino)quinolin-2(1H)-one]
> 10	COC(=O)c1ccc(Nc2cc(=O)[nH]c3ccc(C(c4ccc(Cl)cc4)c4ccc(Cl)cc4)cc23)cc1 [Compound 85, Methyl 4-({6-[bis(4-chlorophenyl)methyl]-2-oxo-1,2-dihydroquinolin-4-yl}amino)benzoate]
> 10	CCOC(=O)CS(=O)(=O)N1CCC(Nc2cc(=O)[nH]c3ccc(C(c4ccc(Cl)cc4)c4ccc(Cl)cc4)cc23)CC1 [Compound 102, ethyl 2-((4-((6-(bis(4-chlorophenyl)methyl)-2-oxo-1,2-dihydroquinolin-4-yl)amino)piperidin-1-yl)sulfonyl)acetate]
> 10	CC(C)(C)OC(=O)CCN1CCC(Nc2cc(=O)[nH]c3ccc(C(c4ccc(Cl)cc4)c4ccc(Cl)cc4)cc23)CC1 [Compound 114, tert-butyl 3-(4-((6-(bis(4-chlorophenyl)methyl)-2-oxo-1,2-dihydroquinolin-4-yl)amino)piperidin-1-yl)propanoate]
> 10	COCCOc1ccc(Nc2cc(=O)[nH]c3ccc(C(c4ccc(Cl)cc4)c4ccc(Cl)cc4)cc23)cc1 [Compound 94, 6-[Bis(4-chlorophenyl)methyl]-4-{[4-(2-methoxyethoxy)phenyl]amino}quinolin-2(1H)-one]
> 10	O=c1cc(Nc2ccc(Cl)c(F)c2)c2cc(C(c3ccc(Cl)cc3)c3ccc(Cl)cc3)ccc2[nH]1 [Compound 83, 6-[Bis(4-chlorophenyl)methyl]-4-[(4-chloro-3-fluorophenyl)amino]quinolin-2(1H)-one]
> 10	NC(=O)CCCOc1ccc(Nc2cc(=O)[nH]c3ccc(C(c4ccc(Cl)cc4)c4ccc(Cl)cc4)cc23)cc1 [Compound 123, 4-[4-({6-[Bis(4-chlorophenyl)methyl]-2-oxo-1,2-dihydroquinolin-4-yl}amino)phenoxy]butanamide]
> 10	O=C(O)CCC(=O)N1CCC(Nc2cc(=O)[nH]c3ccc(C(c4ccc(Cl)cc4)c4ccc(Cl)cc4)cc23)CC1 [Compound 98, 4-(4-((6-(bis(4-chlorophenyl)methyl)-2-oxo-1,2-dihydroquinolin-4-yl)amino)piperidin-1-yl)-4-oxobutanoic acid]
> 10	O=C(O)COc1ccc(Nc2cc(=O)[nH]c3ccc(C(c4ccc(Cl)cc4)c4ccc(Cl)cc4)cc23)cc1 [Compound 109, 2-(4-((6-(bis(4-chlorophenyl)methyl)-2-oxo-1,2-dihydroquinolin-4-yl)amino)phenoxy)acetic acid]
> 10	O=c1cc(NC2CCN(S(=O)(=O)N3CCCC3)CC2)c2cc(C(c3ccc(Cl)cc3)c3ccc(Cl)cc3)ccc2[nH]1 [Compound #81, 6-(bis(4-chlorophenyl)methyl)-4-((1-(pyrrolidin-1-ylsulfonyl)piperidin-4-yl)amino)quinolin-2(1H)-one]
> 10	O=c1cc(NCc2ccc(C(F)(F)F)nc2)c2cc(C(c3ccc(Cl)cc3)c3ccc(Cl)cc3)ccc2[nH]1 [Compound #70, 6-(bis(4-chlorophenyl)methyl)-4-(((6-(trifluoromethyl)pyridin-3-yl)methyl)amino)quinolin-2(1H)-one]

Compound	EC50 [µM]
CC(C)(C)OC(=O)/N=C(/NC(=O)OC(C)(C)C)N1CCC(Nc2cc(=O)[nH]c3ccc(C(c4ccc(Cl)cc4)c4ccc(Cl)cc4)cc23)CC1 [Compound 119, (Z)-tert-butyl ((4-((6-(bis(4-chlorophenyl)methyl)-2-oxo-1,2-dihydroquinolin-4-yl)amino)piperidin-1-yl)((tert-butoxycarbonyl)imino)methyl)carbamate]	> 10
